These results are taken from patent US10799590B2, “Compositions containing a bitter tastant and at least one sophorolipid, and methods of reducing bitter taste attributed to a bitter tastant in an edible composition” (The United States of America, as Represented by the …, priority 2015, dated 2020).

Each structure is given as a SMILES string. “Also recorded” adds a separate entry of the source.

The test system of test [1] is chorda tympani nerve of wild-type B6 mice. The test is described as follows: Chorda tympani whole-nerve responses to lingual taste stimuli, wild-type B6 mice. Particulars: lingual application (FIG. 6B, 7). The class given is in vivo. The method, then:
(§1) Mouse model for sweet property and bitter-masking assay. Recordings of chorda tympani (CT) whole-nerve responses: All protocols involving animals were approved by the Institutional Animal Care and Use Committees at the Monell Center prior to the experiments. The study was performed with mice from two strains: C57BL/6J inbred strain (B6; Jackson Laboratory, Bar Harbor, Me.) bearing the wild-type Tas1r3 allele was used as the control, and the C57BL/6J-Tas1r3^tm1Rjm “gene-knockout” strain (T1R3-KO) lacking the entire T1R3 coding region and devoid of T1R3 protein ([…]., et al., Science, 301: 850-853 (2003)). Afferent signals from taste cells are relayed to the brain via three major gustatory nerves: the chorda tympani, glossopharyngeal, and greater superficial petrosal. […] Neural responses resulting from chemical stimulations of the tongue were fed into an amplifier (Grass Instruments, West Warwick, R.I.) and monitored on an oscilloscope and an audio monitor. Whole-nerve responses were integrated with a time constant of 1.0 s and recorded using a computer for later analysis using a PowerLab system (PowerLab/sp4; AD Instruments, Colorado Springs, Colo.). […] To analyze nerve responses to each stimulus, the magnitudes of integrated responses at 5, 10, 15, 20, and 25 s after stimulus onset were measured and averaged. […]

In a further test the test system is T1R3. Nature of the test: Chorda tympani whole-nerve responses to lingual taste stimuli, T1R3-KO mice. The class given is in vivo. The following applies: lingual application (FIG. 6A, 7). On the procedure: as §1

Consider `OC[C@H]1O[C@@H](O[C@@H]2[C@@H](O)[C@H](O)[C@@H](CO)O[C@H]2O)[C@H](O)[C@@H](O)[C@@H]1O` [Sophorose, 2-O-β-D-glucopyranosyl-β-D glucopyranose], for which the chorda tympani responses result is given as “present” in test [1] and “serious deficit; also recorded: nearly absent” in the test on T1R3.
